Consider 18 compounds from patent US6667312B2, “Thioether substituted imidazoquinolines” (3M Innovative Properties Company, priority 2000, dated 2003).

In general, melting point refers to the temperature of the solid-liquid transition.

The structures appear in SMILES notation.

Data set [1] relates to tumor necrosis factor (α). The data set is described as follows: Cytokine Induction in Human Cells: tumor necrosis factor. Type of data set: cell-based. More on the design: key to Lowest Effective Concentration (μM) Tumor Necrosis Factor: A “*” indicates that no induction was seen at any of the tested concentrations. The settings on record: human PBMC, 18 to 24 hours, tested 30-0.014 μM, TNF by ELISA or IGEN assay; for minimal effective concentration: read-out: Lowest Effective Concentration (μM) Tumor Necrosis Factor. The source says:
(§1) An in vitro human blood cell system is used to assess cytokine induction. Activity is based on the measurement of interferon and tumor necrosis factor (α) (IFN and TNF, respectively) secreted into culture media as described by Testerman et. al. In “Cytokine Induction by the Immunomodulators Imiquimod and S-27609”, Journal of Leukocyte Biology, 58, 365-372 (September, 1995).
(§2) Whole blood from healthy human donors is collected by venipuncture into EDTA vacutainer tubes. Peripheral blood mononuclear cells (PBMC) are separated from whole blood by density gradient centrifugation using Histopaque®-1077. Blood is diluted 1:1 with Dulbecco's Phosphate Buffered Saline (DPBS) or Hank's Balanced Salts Solution (HBSS). The PBMC layer is collected and washed twice with DPBS or HBSS and resuspended at 4×10^6 cells/mL in RPMI complete. The PBMC suspension is added to 48 well flat bottom sterile tissue culture plates (Costar, Cambridge, Mass. or Becton Dickinson Labware, Lincoln Park, N.J.) containing an equal volume of RPMI complete media containing test compound.
(§3) The compounds are solubilized in dimethyl sulfoxide (DMSO). The DMSO concentration should not exceed a final concentration of 1% for addition to the culture wells. The compounds are generally tested at concentrations ranging from 30-0.014 μM.
(§4) The solution of test compound is added at 60 μM to the first well containing RPMI complete and serial 3 fold dilutions are made in the wells. The PBMC suspension is then added to the wells in an equal volume, bringing the test compound concentrations to the desired range (30-0.014 μM). The final concentration of PBMC suspension is 2×10^6 cells/mL. The plates are covered with sterile plastic lids, mixed gently and then incubated for 18 to 24 hours at 37° C. in a 5% carbon dioxide atmosphere.
(§5) Following incubation the plates are centrifuged for 10 minutes at 1000 rpm (˜200× g) at 4° C. The cell-free culture supernatant is removed with a sterile polypropylene pipet and transferred to sterile polypropylene tubes. Samples are maintained at −30 to −70° C. until analysis. The samples are analyzed for interferon (α) by ELISA and for tumor necrosis factor (α) by ELISA or IGEN Assay
Tumor necrosis factor (α) (TNF) concentration is determined using ELISA kits available from Biosource International, Camarillo, Calif. Alternately, the TNF concentration can be determined by Origen® M-Series Immunoassay and read on an IGEN M-8 analyzer from IGEN International, Gaithersburg, Md. The immunoassay uses a human TNF capture and detection antibody pair from Biosource International, Camarillo, Calif. Results are expressed in pg/mL.
(§6) The table below lists the lowest concentration found to induce interferon and the lowest concentration found to induce tumor necrosis factor for each compound.
For orientation: ELISA stands for enzyme-linked immunosorbent assay.

The next data set concerns interferon (α). The data set is described as follows: Cytokine Induction in Human Cells: interferon. It is filed as cell-based. The note with it: human PBMC, 18 to 24 hours, tested 30-0.014 μM, interferon (α) by ELISA; read-out: Lowest Effective Concentration (μM) Interferon.
Source text: as §1, §2, §3, §4, §5
Interferon (α) concentration is determined by ELISA using a Human Multi-Species kit from PBL Biomedical Laboratories, New Brunswick, N.J. Results are expressed in pg/mL.
as §6

With `CCc1nc2c(N)nc3ccccc3c2n1CCCS(C)(=O)=O` [Example 25, 2-ethyl-1-[3-(methylsulfonyl)propyl]-1H-imidazo[4,5-c]quinolin-4-amine], the melting point is more than 250 °C. Further, the minimal effective concentration in data set [1] amounted to 3.33 µM. The minimal effective concentration with interferon (α) came out at 0.37 µM.

In turn, `CSCCCCn1c(C)nc2c(N)nc3ccccc3c21` [Example 26, 2-methyl-1-[4-(methylthio)butyl]-1H-imidazo[4,5-c]quinolin-4-amine] showed a melting point of 190 to 193 °C. In addition, in data set [1], the minimal effective concentration is 0.37 µM. Also, in the data set on interferon (α), the minimal effective concentration amounted to 0.04 µM.

For the compound `Cc1nc2c(N)nc3ccccc3c2n1CCCC[S+](C)[O-]` (stereo not drawn) [Example 27, 2-methyl-1-[4-(methylsulfinyl)butyl]-1H-imidazo[4,5-c]quinolin-4-amine], the melting point lay within 184 to 187 °C. For the same compound, the minimal effective concentration in data set [1] was 10 µM. Moreover, the minimal effective concentration with interferon (α) is 3.33 µM.

Take `CCc1nc2c(N)nc3ccccc3c2n1CCCCSC` [Example 28, 2-ethyl-1-[4-(methylthio)butyl]-1H-imidazo[4,5-c]quinolin-4-amine]: the melting point lay within 183 to 186 °C. In data set [1], the minimal effective concentration stood at 0.37 µM. For the same compound, the minimal effective concentration with interferon (α) turned out to be 0.01 µM.

In turn, `CCc1nc2c(N)nc3ccccc3c2n1CCCCS(C)(=O)=O` [Example 29, 2-ethyl-1-[4-(methylsulfonyl)butyl]-1H-imidazo[4,5-c]quinolin-4-amine] displayed a melting point of 182 to 185 °C. For the same compound, the minimal effective concentration in data set [1] was 3.33 µM. Besides, the minimal effective concentration in the data set on interferon (α) came out at 0.12 µM.

As to `CCCCc1nc2c(N)nc3ccccc3c2n1CCCC[S+](C)[O-]` (stereo not drawn) [Example 31, 2-butyl-1-[4-(methylsulfinyl)butyl]-1H-imidazo[4,5-c]quinolin-4-amine], the melting point lay within 126 to 128 °C. In addition, the minimal effective concentration in data set [1] is 0.12 µM. For the same compound, the minimal effective concentration in the data set on interferon (α) came to 0.04 µM.

`CSCCn1c(C)nc2c(N)nc3ccccc3c21` [Example 32, 2-methyl-1-[2-(methylthio)ethyl]-1H-imidazo[4,5-c]quinolin-4-amine]: the melting point was 193 to 195 °C. In addition, the minimal effective concentration in data set [1] was found to be 0.12 µM. In addition, in the data set on interferon (α), the minimal effective concentration came out at 0.12 µM.

Turning to `Cc1nc2c(N)nc3ccccc3c2n1CCS(C)(=O)=O` [Example 33, 2-methyl-1-[2-(methylsulfonyl)ethyl]-1H-imidazo[4,5-c]quinolin-4-amine], the melting point was in the range of 242 to 245 °C. In data set [1], the minimal effective concentration was 10 µM. In addition, the minimal effective concentration in the data set on interferon (α) is 3.33 µM.

The compound `Cc1nc2c(N)nc3ccccc3c2n1CCCCS(C)(=O)=O` [Example 34, 2-methyl-1-[4-(methylsulfonyl)butyl]-1H-imidazo[4,5-c]quinolin-4-amine] gave a melting point of 206 to 209 °C. Further, the minimal effective concentration in data set [1] is 3.33 µM. For the same compound, the minimal effective concentration in the data set with interferon (α) came to 0.37 µM.

With `CCc1nc2c(N)nc3ccccc3c2n1CCS(C)(=O)=O` [Example 35, 2-ethyl-1-[2-(methylsulfonyl)ethyl]-1H-imidazo[4,5-c]quinolin-4-amine], the melting point lay within 222 to 225 °C. Moreover, in data set [1], the minimal effective concentration was determined as 3.33 µM. In the data set with interferon (α), the minimal effective concentration came to 1.11 µM.

As for `CCCc1nc2c(N)nc3ccccc3c2n1CCS(C)(=O)=O` [Example 36, 1-[2-(methylsulfonyl)ethyl]-2-propyl-1H-imidazo[4,5-c]quinolin-4-amine], the melting point fell in the range of 212 to 214 °C. For the same compound, in data set [1], the minimal effective concentration is 1.11 µM. Besides, the minimal effective concentration in the data set on interferon (α) was 1.11 µM.

Regarding `CCCCc1nc2c(N)nc3ccccc3c2n1CCCCSc1ccc(F)cc1F` [Example 37, 2-butyl-1-{4-[(2,4-difluorophenyl)thio]butyl}-1H-imidazo[4,5-c]quinolin-4-amine], the melting point fell in the range of 122 to 126 °C. For the same compound, the minimal effective concentration in data set [1] turned out to be 1.11 µM. The minimal effective concentration in the data set on interferon (α) is 0.37 µM.

In the case of `CCCCc1nc2c(N)nc3ccccc3c2n1CCCCS(=O)(=O)c1ccc(F)cc1F` [Example 38, 2-butyl-1-{4-[(2,4-difluorophenyl)sulfonyl]butyl}-1H-imidazo[4,5-c]quinolin-4-amine], the melting point lay within 190 to 193 °C. For the same compound, in data set [1], the minimal effective concentration is 1.11 µM. Further, the minimal effective concentration in the data set on interferon (α) turned out to be 0.37 µM.

In turn, `CCCCc1nc2c(N)nc3ccccc3c2n1CCS(C)(=O)=O` [Example 67, 2-butyl-1-[2-(methylsulfonyl)ethyl]-1H-imidazo[4,5-c]quinolin-4-amine] registered a melting point of 226 to 228 °C. In addition, in data set [1], the minimal effective concentration turned out to be 0.04 µM. Moreover, in the data set with interferon (α), the minimal effective concentration amounted to 0.01 µM.

With `Cc1nc2c(N)nc3ccccc3c2n1CCCCCCS(C)(=O)=O` [Example 68, 2-methyl-1-[6-(methylsulfonyl)hexyl]-1H-imidazo[4,5-c]quinolin-4-amine], the melting point lay in the range of 202 to 206 °C. Moreover, the minimal effective concentration in data set [1] came out at 0.12 µM. For the same compound, in the data set with interferon (α), the minimal effective concentration is 0.014 µM.

With `Nc1nc2ccccc2c2c1ncn2CCCCCS(=O)(=O)c1ccccc1` [Example 69, 1-[5-(phenylsulfonyl)pentyl]-1H-imidazo[4,5-c]quinolin-4-amine], the melting point fell in the range of 171 to 172 °C. Also, the minimal effective concentration in data set [1] came out at 1.11 µM. In addition, the minimal effective concentration in the data set with interferon (α) was 1.11 µM.

`COCCc1nc2c(N)nc3ccccc3c2n1CCCCCS(=O)(=O)c1ccccc1` [Example 70, 2-(2-methoxyethyl)-1-[5-(phenylsulfonyl)pentyl]-1H-imidazo[4,5-c]quinolin-4-amine]: the melting point lay within 172 to 175 °C. Further, in data set [1], the minimal effective concentration came to 0.01 µM. Moreover, in the data set on interferon (α), the minimal effective concentration amounted to 0.01 µM.

Regarding `CS(=O)(=O)CCCCCn1c(C(F)(F)F)nc2c(N)nc3ccccc3c21` [Example 71, 1-[5-(methylsulfonyl)pentyl]-2-(trifluoromethyl)-1H-imidazo[4,5-c]quinolin-4-amine], the melting point lay within 192 to 195 °C. Further, the “Lowest Effective Concentration (μM) Tumor Necrosis Factor” value in data set [1] is on record as “*”. Further, in the data set with interferon (α), the minimal effective concentration is 30 µM.
